# Square brackets hold non-standard residues; d marks the D form. Ends that are not written are not given here. pS = N[C@@H](COP(=O)(O)O)C(=O)O
# Tests used:
# [1] = tested on: CD8^+ T cells (PBMCs); experiment: Intracellular cytokine staining (ICS) of PBMCs after 7 days of stimulation with MHC-I-pP (healthy donors, HH patients); assay type: cell-based, human; details: for Reactive CD8^+ T cell population, HH2: HH patient HH2; for Reactive CD8^+ T cell population, HH3: HH patient HH3; for Reactive CD8^+ T cell population, HH8: HH patient HH8; for Reactive CD8^+ T cell population, HH11: HH patient HH11
# Procedure: From this, CD8^+ T cell responses against newly identified MHC class I-associated phosphopeptides in healthy individuals and patients with chronic liver disease were investigated. Twenty-one of the newly identified HCC-associated HLA-A*0201-restricted phosphopeptides were selected (see Table 17) for further immunological testing in HLA-A*0201 positive patients. MHC-I-pP-specific cytotoxic CD8^+ T cell responses (ppCTL) were assessed using intracellular cytokine staining (ICS) and several cytokines and surface markers were assessed in parallel. After 7 days of stimulation with the respective MHC-I-pP and no other cytokines, CD3- and CD8-expressing T cells were stained for at least two different cytokines (IFN-γ, TNF-α) and when required CD107a expression as a marker for their cytotoxic potential.
# First, peripheral blood mononuclear cells (PBMCs) from healthy donors and patients with hereditary hemochromatosis (HH) were analyzed. HH is a chronic liver disease characterized by excessive intestinal absorption of dietary iron resulting in a pathological deposition of iron in the liver. PBMCs or lymphocytes from liver tissue were extracted and specifically stimulated with (phospho-) peptides for 7 days before intracellular cytokine staining (ICS). Doublets and dead cells, using a fixable viability dye, were excluded. Lymphocytes were gated on CD3^+ and CD8^+ double positive cells and were analysed for expression of IFNγ, TNFα-, and CD107a.
# [2] = tested on: expanded lymphocyte cultures from deceased donor livers, cirrhotic livers and HCC; experiment: ICS for MHC-I-pP reactivity of liver-derived lymphocyte cultures after phosphopeptide-specific expansion; assay type: cell-based, human; details: for ppCTL response, Deceased Donor Liver Do 2 / ppCTL response, Deceased Donor Liver Do 3 / ppCTL response, Deceased Donor Liver Do 4 / ppCTL response, Deceased Donor Liver Do 6 / ppCTL response, End-stage Liver Cirrhosis IHL 11 / ppCTL response, End-stage Liver Cirrhosis IHL 13 / ppCTL response, HCC Distal HCC 1 / ppCTL response, HCC Tumor HCC 1 / ppCTL response, HCC Distal HCC 4: pP-specifically expanded culture; for ppCTL response, HCC Distal HCC 1: HCC 1 Distal; for ppCTL response, HCC Tumor HCC 1: HCC 1 Tumor; for ppCTL response, HCC Distal HCC 4: HCC 4 Distal
# [3] = tested on: unexpanded lymphocyte cultures (CD8^+ T cells); experiment: ICS for MHC-I-pP reactivity of lymphocyte cultures without expansion (Table 23, No Expansion); details: HH6
Substance,"Reactive CD8^+ T cell population, HH2 [1]","Reactive CD8^+ T cell population, HH3 [1]","Reactive CD8^+ T cell population, HH8 [1]","Reactive CD8^+ T cell population, HH11 [1]","Reactive CD8^+ T cells, pP-specific Expansion, Do2 [2]","Reactive CD8^+ T cells, pP-specific Expansion, Do4 [2]","Reactive CD8^+ T cells, pP-specific Expansion, HH6 [2]","ppCTL response, Deceased Donor Liver Do 2 [2]","ppCTL response, Deceased Donor Liver Do 3 [2]","ppCTL response, Deceased Donor Liver Do 4 [2]","ppCTL response, Deceased Donor Liver Do 6 [2]","ppCTL response, End-stage Liver Cirrhosis IHL 11 [2]","ppCTL response, End-stage Liver Cirrhosis IHL 13 [2]","ppCTL response, HCC Distal HCC 1 [2]","ppCTL response, HCC Tumor HCC 1 [2]","ppCTL response, HCC Distal HCC 4 [2]","Reactive CD8^+ T cells, No Expansion, HH6 [3]"
"RQAsIELPSMAV: LSP1 phosphopeptide, HLA-A*0201 (RQA[pS]IELPSMAV; listed as Homo sapiens)",0 (<0.25% reactive CD8^-+ T cells),0 (<0.25% reactive CD8^-+ T cells),0 (<0.25% reactive CD8^-+ T cells),0 (<0.25% reactive CD8^-+ T cells),0 (<0.25% reactive CD8^-+ T cells),0 (<0.25% reactive CD8^-+ T cells),0 (<0.25% reactive CD8^-+ T cells),0 (<0.25% reactive CD8-+ T cells),0 (<0.25% reactive CD8-+ T cells),0 (<0.25% reactive CD8-+ T cells),1 (0.25-2.5% reactive CD8-+ T cells),0 (<0.25% reactive CD8-+ T cells),0 (<0.25% reactive CD8-+ T cells),0 (<0.25% reactive CD8-+ T cells),0 (<0.25% reactive CD8-+ T cells),0 (<0.25% reactive CD8-+ T cells),1 (0.25-2.5% reactive CD8^-+ T cells)
"RQDsTPGKVFL: NR2C1 phosphopeptide, HLA-A*0201 (RQD[pS]TPGKVFL; listed as Homo sapiens)",0 (<0.25% reactive CD8^-+ T cells),0 (<0.25% reactive CD8^-+ T cells),0 (<0.25% reactive CD8^-+ T cells),0 (<0.25% reactive CD8^-+ T cells),0 (<0.25% reactive CD8^-+ T cells),0 (<0.25% reactive CD8^-+ T cells),1 (0.25-2.5% reactive CD8^-+ T cells),1 (0.25-2.5% reactive CD8-+ T cells),0 (<0.25% reactive CD8-+ T cells),0 (<0.25% reactive CD8-+ T cells),0 (<0.25% reactive CD8-+ T cells),0 (<0.25% reactive CD8-+ T cells),0 (<0.25% reactive CD8-+ T cells),0 (<0.25% reactive CD8-+ T cells),0 (<0.25% reactive CD8-+ T cells),0 (<0.25% reactive CD8-+ T cells),2 (2.5-5.0% reactive CD8^-+ T cells)
"RQLsSGVSEI: HSPB1 phosphopeptide, HLA-A*0201 (RQL[pS]SGVSEI; listed as Homo sapiens)",0 (<0.25% reactive CD8^-+ T cells),0 (<0.25% reactive CD8^-+ T cells),0 (<0.25% reactive CD8^-+ T cells),0 (<0.25% reactive CD8^-+ T cells),0 (<0.25% reactive CD8^-+ T cells),0 (<0.25% reactive CD8^-+ T cells),0 (<0.25% reactive CD8^-+ T cells),0 (<0.25% reactive CD8-+ T cells),0 (<0.25% reactive CD8-+ T cells),0 (<0.25% reactive CD8-+ T cells),0 (<0.25% reactive CD8-+ T cells),0 (<0.25% reactive CD8-+ T cells),0 (<0.25% reactive CD8-+ T cells),0 (<0.25% reactive CD8-+ T cells),0 (<0.25% reactive CD8-+ T cells),0 (<0.25% reactive CD8-+ T cells),2 (2.5-5.0% reactive CD8^-+ T cells)
